No end group written: not given here.
Columns and labels:
[1] = Protease assay with chymotrypsin; type: in vitro ADME; details: chymotrypsin (isolated protease) in buffer; 100 mM TRIS–HCl pH 8.0 with 10 mM CaCl2; peptide 100 mM (so in the source); 50 mL of 0.5 mg/mL chymotrypsin stock to 500 mL peptide solution (so in the source); samples at 2, 6, 25, 60 min; HPLC–MS; < 24 = peak not detected at 2 min, 3% detection limit
Description: (§1) Protease assays: Peptides were dissolved in 100 mM TRIS–HCl buffer (pH 8.0) containing 10 mM CaCl2 at 100 mM concentration. Chymotrypsin (Sigma-Aldrich, Budapest, Hungary) stock solution was 0.5 mg/mL in the same buffer. A total […] peptide solution was measured in a reaction vessel and […] protease stock was added. Samples of […] were taken after 2, 6, 25 and 60 min. The samples were diluted into […] 5% TFA aliquots. The samples were then injected into HPLC–MS using a Phenomenex C18-XB Peptide column (250 × 4.6 mm, […]).

[2] = Protease assay with trypsin; type: in vitro ADME; details: trypsin (isolated protease) in buffer; 100 mM TRIS–HCl pH 8.0 without CaCl2; peptide 100 mM (so in the source); protease stock 0.5 mg/mL; samples at 2, 6, 25, 60 min; HPLC–MS; < 24 = peak not detected at 2 min, 3% detection limit
ganglioside GM1 = assay: Isothermal titration calorimetry (ITC) with GM1:DPC 1:5 bicelles; type: binding; details: 35 °C, GM1:DPC 1:5 (GM1 300 µM in syringe) injected into 15 µM ligand in cell, pH 7.2 phosphate buffer, one- or two-site fit, experiments repeated twice; for Kd: read-out: Binding affinities (KD) to ganglioside GM1
Description: Isothermal Titration Calorimetry: ITC was performed using a MicroCal VP-ITC microcalorimeter at 35 °C. The monosialoganglioside GM1 was obtained from Biosynth-Carbosynth (Bratislava, Slovakia, product code: OG03918, C73H131N3O31·xNa, HPLC purity > 95%). The n-dodecylphosphocholine (DPC) was obtained from Avanti (Alabaster, Alabama, product code: 850336, C17H38NO4P, purity > 99%). In individual titrations, 15 µL of solution containing GM1:DPC 1:5 was injected into the ligand solution in the cell from a computer-controlled 300 µL microsyringe at time intervals of 300 s. The GM1:DPC micelle mixture was prepared in the same pH 7.2 phosphate buffer as the ligand in the cell. The concentration of the ligand in the cell was 15 µM. The concentration of GM1 in the syringe was 300 µM. In control experiments, GM1:DPC was titrated into the cell containing buffer without ligand. To rule out lipid clustering, control measurements were performed with pure GM1 in the syringe, which yielded a […], indicating the GM1:DPC interaction in the micelles (Figure S6). No aggregation of the micelles was observed after titration, which rules out any secondary inter-particle effects induced by ligand binding. We note that such an uncontrolled aggregation phenomenon would have been detrimental to the very sensitive ITC detection. Our finding is in agreement with the literature results that mixed micelles of GM1 and DPC are readily formed. The experiments were repeated twice. The experimental data were fitted to one-binding-site or two-independent-site models with adjustable parameters of ΔHb1, Kd1, n1, and ΔHb2, Kd2, n2, respectively. Background subtraction and spline baseline correction was applied prior to the application of a generalized reduced gradient nonlinear least-squares procedure. […] Errors were estimated by using jack-knife resampling.

Chymotrypsin = target: T1, Chymotrypsin (Bos taurus, UniProt P00766); assay: Protease assay with chymotrypsin; type: in vitro ADME; details: chymotrypsin (isolated protease) in buffer; 100 mM TRIS–HCl pH 8.0 with 10 mM CaCl2; peptide 100 mM (so in the source); 50 mL of 0.5 mg/mL chymotrypsin stock to 500 mL peptide solution (so in the source); samples at 2, 6, 25, 60 min; HPLC–MS; < 24 = peak not detected at 2 min, 3% detection limit
T1 construct: purchased Sigma-Aldrich
Description: as §1

| Molecule | half-life [1] | half-life [2] | Kd (ganglioside GM1) | other results |
| --- | --- | --- | --- | --- |
| NCCCC[C@H](NC(=O)[C@H](Cc1ccc(O)cc1)NC(=O)[C@@H](N)Cc1c[nH]c2ccccc12)C(=O)N[C@H](CC(=O)N[C@@H](Cc1c[nH]c2ccccc12)C(N)=O)Cc1ccc(O)cc1 [WYKYβW] | < 0.4 min | 6.83 min | – | – |
| WAKYW-NH2 [WAKYW] | – | – | 5.75 µM | – |
| AYKYW [Ala derivative of WYKYW, position 1] | – | – | – | Binding affinities (KD) to ganglioside GM1 (ganglioside GM1): n.f. ^[a] |
| WYKYA-NH2 [WYKYA] | – | – | 1.06 µM | – |
| NCCCC[C@H](NC(=O)[C@H](Cc1ccc(O)cc1)NC(=O)C[C@@H](N)Cc1c[nH]c2ccccc12)C(=O)N[C@@H](Cc1ccc(O)cc1)C(=O)N[C@@H](Cc1c[nH]c2ccccc12)C(N)=O [WβYKYW] | < 0.4 min | 1.83 min | – | – |
| WYKAW-NH2 [WYKAW] | – | – | 1.69 µM | – |
| NCCCC[C@@H](CC(=O)N[C@@H](Cc1ccc(O)cc1)C(=O)N[C@@H](Cc1c[nH]c2ccccc12)C(N)=O)NC(=O)[C@H](Cc1ccc(O)cc1)NC(=O)[C@@H](N)Cc1c[nH]c2ccccc12 [WYKβYW] | – | – | – | half-life (Chymotrypsin): 10.8 min |
| NCCCC[C@H](NC(=O)C[C@H](Cc1ccc(O)cc1)NC(=O)[C@@H](N)Cc1c[nH]c2ccccc12)C(=O)N[C@@H](Cc1ccc(O)cc1)C(=O)N[C@@H](Cc1c[nH]c2ccccc12)C(N)=O [WYβKYW] | – | 15 min | – | half-life (Chymotrypsin): 1.25 min |
| WYAYW-NH2 [WYAYW] | – | – | 10.5 µM | – |
| NCCCC[C@H](NC(=O)[C@H](Cc1ccc(O)cc1)NC(=O)[C@@H](N)Cc1c[nH]c2ccccc12)C(=O)N[C@@H](Cc1ccc(O)cc1)C(=O)N[C@H](CC(N)=O)Cc1c[nH]c2ccccc12 [WYKYWβ] | < 0.4 min | < 0.4 min | – | – |
